Reference: patent US20140242019A1, “COMPOSITION FOR PREVENTING HAIR LOSS AND GROWING HAIR COMPRISING HYDROXYDIHYDROBOVOLIDE” (Pukyong National University Industry-University Cooperation …, priority 2013, published 2014)
“Also recorded” adds a separate entry of the source.

How the values were obtained:
[1] = test system: hair outer root sheath cells; test: MTT cell proliferation / survival rate in hair outer root sheath cells; assay type: cell-based, human; settings: 24 h
Procedure: (§1) All of the tests were performed after obtaining approval of Ethics Commission of Medical College, Kyungpook National University. As samples of hairs, hairs in intact state were collected from scalps in the backs of the heads of male hair transplant patients. All of the hair samples were used with the consent of hair transplant patient who provides the samples. The area of subcutaneous fat of scalp including a hair follicle was isolated from the hair sample, and then the hair follicle was isolated by using a binocular microscope. In order to obtain hair papilla cells, the hair papilla was isolated from the hair follicle, and then shifted to a dish that was coated with bovine type I collagen. Then, the hair papilla in the dish was cultured (in an incubator at 37° C. and 5% CO2) in a DEME (Gibco BRL, Gaithersburg. Md., USA) medium including 20% heat inactivated fetal bovine serum including penicillin (100 U/mL) and streptomycin ([…]). […]
(§2) It was investigated whether or not the hydroxydihydrobovolide compound according to the present invention has an effect on cell proliferation in hair follicle cells and cells in the outer root sheath, in which the cells were closely associated with hair growth. […] After 30 minutes, absorbance of the cells was measured (570 nm).

[2] = test system: human hair follicle dermal papilla cells; test: MTT cell proliferation / survival rate in human hair follicle dermal papilla cells; assay type: cell-based; settings: 24 h
Procedure: as §1, §2

human hair tissues = test: Evaluation of hair growth using human hair tissue culture; assay type: cell-based; settings: 5 μM
Procedure: The human hair tissues were supplied from an immunology laboratory in Kyungpook National University. The human hair tissues were cultured in an incubator at 37° C. and CO2 by using Williams E media (Sigma, USA) including 2 mM L-glutamin, 100 U/mL of streptomycin, and 10 ng/ml of hydrocortisone. The test materials with various concentrations were cultured for 6 days, and the lengths of hairs were measured on the third days and sixth day.

CCCCCC1(O)OC(=O)C(C)=C1C (stereo not drawn) [hydroxydihydrobovolide, 5-hydroxy-3,4-dimethyl-5-pentylfuran-2(5H)-one]
cell proliferation increased by ([1]; 0.5 μM, vs control group, highest effect): 156% | cell proliferation compared with control group ([1]; 0.005 to 0.5 μM): significantly higher cell proliferation rate than the control group; also recorded: significantly higher than that of the control group | cell proliferation increased by ([2]; 0.05 μM, vs untreated control group, p<0.05): 144% | effect on cell proliferation compared with control group ([2]; 0.005 to 0.5 μM): significant cell proliferation effect; also recorded: significant effects on cell proliferation | length of hair on the third day (human hair tissues; day 3 of culture): 0.62 mm | length of hair on the sixth day (human hair tissues; day 6 of culture): 1.38 mm
